Each structure is given as a SMILES string. Counter-ions that a name gives are not always drawn.

The first data set in a line: RP, Waters ACQUITY UPLC HSS T3, 100 × 2.1 mm, 1.8 µm; A: water + 0.1% formic acid, pH 3; B: 30% methanol + 70% acetonitrile + 0.1% formic acid, pH 3; gradient (min/%B) 0.0/5 1.0/8 2.0/15 3.0/40 4.0/70 4.5/100 5.0/100 6.4/100 6.6/5.0 6.8/5.0 7.0/5.0. To be noted: stereoisomer not certain.
Turning to `O=c1[nH]cc(C2OC(CO)C(O)C2O)c(=O)[nH]1` (stereo unspecified), the LC retention time is 0.743 min. Still for that read-out and setting: the figure for `NC(CCCNC1=NCC(=O)N1)C(=O)O` (stereo unspecified) is 0.459 min.

In the case of `CC12CCC3C(CCC4CC(=O)CCC43C)C1CCC2O` (stereo unspecified), the LC retention time was 4.47 min. The same measure, in the same setting: the result for `CC1NC(=NCCCC(N)C(=O)O)NC1=O` (stereo unspecified) reads 0.484 min; that for `Nc1c(O)cccc1C(=O)CC(N)C(=O)O` (racemic) [3-hydroxy-dl-kynurenine], 0.786 min; that for `NC(CCCC(=O)O)C(=O)O` (racemic) [dl-2-aminoadipic acid], 0.51 min. The same measure, in the same setting: the result for `O=C(O)C(O)Cc1c[nH]c2ccccc12` (racemic) [dl-3-indolelactic acid] reads 3.52 min; that for `CN1C(=O)CCC1c1cccnc1` (single isomer, unassigned; (-)) [(-)-Cotinine], 0.793 min; that for `Cn1c(=O)[nH]c2ncn(C)c2c1=O` [1,7-dimethylxanthine], 2.56 min.

As for `Cn1cnc(C[C@H](N)C(=O)O)c1` [1-Methyl-L-Histidine], the LC retention time came to 0.425 min. On the same count and under the same terms, the result for `Cn1cnc2c(ncn2C2OC(CO)C(O)C2O)c1=N` (stereo unspecified) [1-methyladenosine] reads 1.63 min.

Turning to `Cn1c(=O)[nH]c2[nH]c(=O)[nH]c2c1=O` [1-methyluric acid], the LC retention time was determined as 1.27 min. In the case of `NC(CCCC(N)C(=O)O)C(=O)O` (stereo unspecified) [2,6-diaminopimelic acid], the LC retention time was found to be 0.44 min. Turning to `CC(C)(N)C(=O)O` [2-aminoisobutyric acid], the LC retention time worked out at 0.524 min. For `CCC(C)(O)C(=O)O` (stereo unspecified) [2-hydroxy-2-methylbutyric acid], the LC retention time was 2.23 min. Still for that read-out and setting: the result for `COc1ccc(O)c(C(=O)O)c1` [2-hydroxy-5-methoxylbenzoic acid] reads 3.69 min.

For the compound `CC(C)C(O)C(=O)O` (stereo unspecified) [2-hydroxyisovaleric acid], the LC retention time stood at 2.54 min.

With `Cc1ccccc1C(=O)NCC(=O)O` [2-methylhippuric acid], the LC retention time was 3.41 min. On the same count and under the same terms, the figure for `Nc1ccn(C2OC(CO)C(O)C2O)c(=S)n1` (stereo unspecified) [2-thiocytidine dihydrate] is 0.619 min; for `OCC(O)c1ccc(O)c(O)c1` (stereo unspecified) [3,4-dihydroxyphenylglycol] it is 0.858 min; for `Cn1c(=O)[nH]c(=O)c2c1[nH]c(=O)n2C` [3,7-dimethyluric acid] it is 1.55 min. On the same count and under the same terms, the figure for `CC(O)CC(=O)O` (stereo unspecified) [3-hydroxybutyric acid] is 3.44 min.

Take `O=C(O)Cc1c[nH]c2ccccc12` [3-indoleacetic acid]: the LC retention time was determined as 3.63 min. As to `Cc1cc(C(=O)O)ccc1O` [4-hydroxy-3-methylbenzoic acid], the LC retention time stood at 3.46 min. The same measure, in the same setting: the result for `O=C(O)Cc1c[nH]c2ccc(O)cc12` [5-hydroxyindole-acetic acid] reads 2.92 min. On the same count and under the same terms, the figure for `Cn1c(=O)[nH]c2[nH]c(=O)[nH]c(=O)c21` [7-methyluric acid] is 1.08 min. Same read-out and setting: the figure for `Cn1cnc2[nH]c(=O)[nH]c(=O)c21` [7-methylxanthine] is 1.25 min; for `O=C1OC(C(O)CO)C(O)=C1O` (stereo unspecified) [Ascorbic acid] it is 0.561 min; for `O=C(O)C1OC(Oc2ccccc2O)C(O)C(O)C1O` (stereo unspecified) [Pyrocatechol glucuronide] it is 2.81 min.

For `C[N+](C)(C)[O-]` [TMAO], the LC retention time was 0.468 min. On the same count and under the same terms, the result for `CC(=O)Nc1c(N)[nH]c(=O)n(C)c1=O` [aamu] reads 0.666 min.

As for `C=CCS(=O)CC(N)C(=O)O` (stereo unspecified) [aliin], the LC retention time was found to be 0.638 min. The same measure, in the same setting: the figure for `NC(=O)NC(NC(N)=O)C(=O)O` [allantoic acid] is 0.491 min. On the same count and under the same terms, the result for `CC(C)C(=O)C(=O)O` [alpha-ketoisovaleric acid] reads 1.92 min. For the compound `Cn1cncc1CC(NC(=O)CCN)C(=O)O` (stereo unspecified) [anserine], the LC retention time stood at 0.441 min. The same measure, in the same setting: the figure for `NC(CC(=O)O)C(=O)NC(Cc1ccccc1)C(=O)O` (stereo unspecified) [asp-phe] is 2.67 min. Regarding `NCCC(=O)NC(Cc1cnc[nH]1)C(=O)O` (stereo unspecified) [carnosine], the LC retention time is 0.437 min. As to `CCCc1oc(CCC(=O)O)c(C(=O)O)c1C` [cmpf], the LC retention time amounted to 4.08 min. On the same count and under the same terms, the figure for `CC(C)C1NC(=O)C2CCCN2C1=O` (stereo unspecified) [cyclo-(pro-val)] is 3.1 min; for `OCC(O)C(O)C(O)C(O)CO` (stereo not drawn) [d(-)-mannitol] it is 0.483 min; for `O=C(O)C(O)c1ccc(O)c(O)c1` (stereo unspecified) [dihydroxymandelic acid] it is 0.829 min. As to `NCCc1ccc(O)c(O)c1` [dopamine], the LC retention time stood at 0.712 min.

In the case of `CNCC(O)c1ccc(O)c(O)c1` (stereo unspecified) [epinephrine], the LC retention time came out at 0.564 min. For the compound `NCCCC(=O)O` [gamma-aminobutyric acid], the LC retention time was determined as 0.491 min. Turning to `CC(CCC(=O)NCC(=O)O)C1CCC2C3C(O)CC4CC(OC5OC(C(=O)O)C(O)C(O)C5O)CCC4(C)C3CCC12C` (stereo unspecified) [glycochenodeoxycholic acid 3-glucuronide], the LC retention time was determined as 4.34 min. Still for that read-out and setting: the result for `O=C(O)C1OC(Oc2ccc(O)cc2)C(O)C(O)C1O` (stereo unspecified) [hydroquinone-glucuronide] reads 0.91 min; that for `CS(=O)CCCN=C=S` (stereo unspecified) [iberin], 3.24 min.

Consider `O=C(Cc1c[nH]c2ccccc12)OC1OC(C(=O)O)C(O)C(O)C1O` (stereo unspecified) [indole-3-acetic acid-glucuronide], for which the LC retention time amounted to 3.46 min. Still for that read-out and setting: the result for `O=C(O)CNC(=O)C=Cc1c[nH]c2ccccc12` [indole-3-acryloylglycine] reads 3.56 min; that for `O=C(OC1OC(C(=O)O)C(O)C(O)C1O)c1c[nH]c2ccccc12` (stereo unspecified) [indole-3-carboxylic acid glucuronide], 3.42 min. The same measure, in the same setting: the result for `CC(C)CC(=O)NCC(=O)O` [isovalerylglycine] reads 2.74 min; that for `CC12C=Cc3occc3C1CCC13CC(CCC12)C(O)(CO)C3` (stereo unspecified) [kahweol], 3.81 min; that for `c1coc(CNc2ncnc3nc[nH]c23)c1` [kinetin], 3.03 min.

For the compound `C[N+](C)(C)CC(O)CC(=O)[O-]` (stereo not drawn) [l-carnitine inner salt], the LC retention time came to 0.457 min. On the same count and under the same terms, the figure for `O=c1cc(-c2ccc(O)c(O)c2)oc2cc(O)cc(O)c12` [luteolin] is 3.75 min; for `C[NH+]1CC(O)CC1C(=O)[O-]` (stereo unspecified) [n-methyl-4-hydroxyproline] it is 0.498 min. Still for that read-out and setting: the result for `CCCCCCCC(=O)OC1OC(C(=O)O)C(O)C(O)C1O` (stereo unspecified) [octanoic acid glucuronide] reads 3.92 min.

As for `CCCCCCCCC=CCCCCCCCC(N)=O` [oleamide], the LC retention time was found to be 4.81 min. Still for that read-out and setting: the figure for `CCC=CCC=CCC=CCC=CCC=CCC=CCCC(=O)OC(COC(=O)CCCCCCCCCCCCCCCCC)COP(=O)([O-])OCC[N+](C)(C)C` (stereo unspecified) [pc(18:0/22:6)] is 5.51 min; for `C=C(C)C1CC=C(C(=O)O)CC1` (stereo unspecified) [perillic acid] it is 3.81 min; for `O=C(O)CNC(=O)Cc1ccccc1` [phenylacetylamino-acetic acid] it is 3.38 min. Still for that read-out and setting: the figure for `O=C(O)C1CCCCN1` (stereo unspecified) [pipecolinic acid] is 0.62 min. The same measure, in the same setting: the figure for `C[N+]1(C)CCCC1C(=O)[O-]` (stereo unspecified) [proline betaine] is 0.543 min. Regarding `O=C(O)c1ccc[nH]1` [pyrrole-2-carboxylic acid], the LC retention time turned out to be 2.61 min. The same measure, in the same setting: the figure for `O=c1c(O)c(-c2ccc(O)c(O)c2)oc2cc(O)cc(O)c12` [quercetin] is 3.74 min; for `CC(=O)NC(CSC(=S)NCCCCS(C)=O)C(=O)O` (stereo unspecified) [sulforaphane-n-acetylcysteine] it is 3.24 min; for `CC12CCC(=O)C=C1CCC1C2CCC2(C)C(O)CCC12` (stereo unspecified) [testosterone] it is 4.32 min. Consider `O=C(O)/C=C/c1cccc(O)c1` [trans-3-hydroxycinnamic acid], for which the LC retention time was 3.53 min. On the same count and under the same terms, the figure for `CC(C)C(N)C(=O)O` (stereo unspecified) [valine] is 0.546 min.

Another data set is described as follows: RP, Waters ACQUITY UPLC BEH C18, 100 × 2.1 mm, 1.7 µm; A: water + 0.1% formic acid, pH 3; B: 80% acetonitrile + 20% acetone + 0.1% formic acid, pH 3; gradient (min/%B) 0/0 6/100. Particulars: stereoisomer not certain.
With `O=c1[nH]cc(C2OC(CO)C(O)C2O)c(=O)[nH]1` (stereo unspecified), the LC retention time was 1.16 min.

Regarding `NC(CCCNC1=NCC(=O)N1)C(=O)O` (stereo unspecified), the LC retention time was 0.561 min.

As for `CC1NC(=NCCCC(N)C(=O)O)NC1=O` (stereo unspecified), the LC retention time was found to be 0.585 min. The same measure, in the same setting: the result for `Nc1c(O)cccc1C(=O)CC(N)C(=O)O` (racemic) [3-hydroxy-dl-kynurenine] reads 1.03 min; that for `NC(CCCC(=O)O)C(=O)O` (racemic) [dl-2-aminoadipic acid], 0.657 min; that for `O=C(O)C(O)Cc1c[nH]c2ccccc12` (racemic) [dl-3-indolelactic acid], 2.13 min. On the same count and under the same terms, the figure for `CN1C(=O)CCC1c1cccnc1` (single isomer, unassigned; (-)) [(-)-Cotinine] is 1.26 min. The same measure, in the same setting: the figure for `Cn1c(=O)[nH]c2ncn(C)c2c1=O` [1,7-dimethylxanthine] is 1.45 min; for `Cn1cnc(C[C@H](N)C(=O)O)c1` [1-Methyl-L-Histidine] it is 0.531 min; for `Cn1cnc2c(ncn2C2OC(CO)C(O)C2O)c1=N` (stereo unspecified) [1-methyladenosine] it is 1.3 min. Turning to `Cn1c(=O)[nH]c2[nH]c(=O)[nH]c2c1=O` [1-methyluric acid], the LC retention time was 1.28 min. Same read-out and setting: the figure for `NC(CCCC(N)C(=O)O)C(=O)O` (stereo unspecified) [2,6-diaminopimelic acid] is 0.543 min; for `Nc1ccn(C2OC(CO)C(O)C2O)c(=S)n1` (stereo unspecified) [2-thiocytidine dihydrate] it is 0.986 min; for `CCC(C)C(NC(=O)C1CCC(=O)N1)C(=O)O` (stereo unspecified) [pglu-ile] it is 1.83 min. Same read-out and setting: the result for `CC(C)CC(NC(=O)C1CCC(=O)N1)C(=O)O` (stereo unspecified) [pglu-leu] reads 1.89 min; that for `CC(C)C(NC(=O)C1CCC(=O)N1)C(=O)O` (stereo unspecified) [pglu-val], 1.57 min; that for `NC(Cc1ccccc1)C(=O)NC(CC(=O)O)C(=O)O` (stereo unspecified) [phe-asp], 1.54 min. The same measure, in the same setting: the result for `CC(O)C(NC(=O)C1CCCN1)C(=O)O` (stereo unspecified) [pro-thr] reads 0.6 min. For the compound `CCC(=O)OC(CC(=O)[O-])C[N+](C)(C)C` (stereo unspecified) [propionylcarnitine chloride], the LC retention time was 1.35 min. Same read-out and setting: the figure for `COc1cc(C(=O)O)cc(OC)c1O` [syringic acid] is 1.79 min. Same read-out and setting: the result for `CC(CCC(=O)NCCS(=O)(=O)O)C1CCC2C3CCC4CC(O)CCC4(C)C3CCC12C` (stereo unspecified) [taurolithocholic acid] reads 3.84 min; that for `CC(C)C(N)C(=O)NC(CCC(=O)O)C(=O)O` (stereo unspecified) [val-glu], 0.906 min.

Source of the values: the RepoRT retention time repository (doi:10.1016/j.aca.2011.12.065).
